Experimental data reported in the CheMixHub ionic liquid set.
± gives the uncertainty stated by the source.

Assay: xn = mol fraction of the nth substance listed
Settings: 101 kPa, frequency 2 MHz

O=S(=O)([O-])C(F)(F)F.[Li+] + O=S(=O)([N-]S(=O)(=O)C(F)(F)F)C(F)(F)F.[Li+] + O
electrical conductivity [S/m]
Settings | 273 K | 278 K | 283 K | 288.1 K | 293 K | 298.1 K
x2 = 0.001799, x1 = 0.0005943 | 0.413 ± 0.004 | 0.475 ± 0.005 | 0.542 ± 0.005 | 0.615 ± 0.006 | 0.693 ± 0.007 | 0.778 ± 0.008
x2 = 0.005377, x1 = 0.001799 | 0.96 ± 0.01 | 1.114 ± 0.011 | 1.28 ± 0.013 | 1.47 ± 0.015 | 1.67 ± 0.017 | 1.89 ± 0.019
x2 = 0.00893, x1 = 0.003054 | 1.38 ± 0.014 | 1.606 ± 0.016 | 1.86 ± 0.019 | 2.134 ± 0.021 | 2.434 ± 0.024 | –
x2 = 0.01246, x1 = 0.004127 | 1.716 ± 0.017 | 2.004 ± 0.02 | 2.323 ± 0.023 | 2.67 ± 0.027 | 3.05 ± 0.031 | –
x2 = 0.01596, x1 = 0.005377 | 1.99 ± 0.02 | 2.33 ± 0.023 | 2.704 ± 0.027 | 3.116 ± 0.031 | 3.56 ± 0.036 | –
x2 = 0.01944, x1 = 0.006623 | 2.219 ± 0.022 | 2.6 ± 0.026 | 3.017 ± 0.03 | 3.48 ± 0.035 | 3.98 ± 0.04 | –
x2 = 0.05129, x1 = 0.0177 | 2.96 ± 0.03 | 3.47 ± 0.035 | 4.041 ± 0.04 | 4.67 ± 0.047 | 5.346 ± 0.053 | –
x2 = 0.08265, x1 = 0.02921 | 2.59 ± 0.026 | 3.039 ± 0.03 | 3.538 ± 0.035 | 4.09 ± 0.041 | 4.68 ± 0.047 | –
x2 = 0.112, x1 = 0.04029 | 1.98 ± 0.02 | 2.329 ± 0.023 | 2.718 ± 0.027 | 3.147 ± 0.031 | 3.616 ± 0.036 | –
x2 = 0.1395, x1 = 0.05129 | 1.422 ± 0.014 | 1.68 ± 0.017 | 1.97 ± 0.02 | 2.29 ± 0.023 | 2.648 ± 0.026 | –
x2 = 0.1654, x1 = 0.06203 | 0.985 ± 0.01 | 1.17 ± 0.012 | 1.39 ± 0.014 | 1.625 ± 0.016 | 1.89 ± 0.019 | –
x2 = 0.1898, x1 = 0.07238 | 0.666 ± 0.007 | 0.802 ± 0.008 | 0.957 ± 0.01 | 1.133 ± 0.011 | 1.331 ± 0.013 | –
x2 = 0.2128, x1 = 0.08265 | 0.443 ± 0.004 | 0.54 ± 0.005 | 0.652 ± 0.007 | 0.782 ± 0.008 | 0.929 ± 0.009 | –
x2 = 0.2345, x1 = 0.0927 | 0.291 ± 0.003 | 0.36 ± 0.004 | 0.441 ± 0.004 | 0.535 ± 0.005 | 0.644 ± 0.006 | –
x2 = 0.2551, x1 = 0.1024 | 0.189 ± 0.002 | 0.237 ± 0.002 | 0.295 ± 0.003 | 0.364 ± 0.004 | 0.445 ± 0.004 | –
x2 = 0.2745, x1 = 0.112 | 0.121 ± 0.001 | 0.155 ± 0.002 | 0.196 ± 0.002 | 0.246 ± 0.003 | 0.305 ± 0.003 | –
